Laboratory results reported in patent US20230241102A1, “FORMULATIONS OF CALCIUM AND PHOSPHATE FOR ORAL INFLAMMATION” (Bausch Health Companies Inc., priority 2014, published 2023).

How the values were obtained:
[1] = pH of the resulting liquid (pH meter Mettler Toledo Seven Multi, USP<791>); settings: for pH trial 1 / pH trial 2: Table 2, 30 ml tap water, room temperature
Description: (§1) To evaluate dissolution, the components were weighed and put in centrifuge tubes containing 30 ml of tap water at room temperature. The tubes were gently stirred by hand (up and down movements) for 30 seconds to 1 minute. The dispersions were then assessed visually for turbidity and presence of particles in suspension or precipitate. pH was also assessed using pH meter Mettler Toledo Seven Multi and following USP<791>method.
(§2) Visual solubility tests were done in duplicate using 3 different calcium sources. The quantity of material was adjusted in order to maintain a consistent calcium content from each different salt.
The following trials were performed in order to assess visual solubility and pH levels of various formulations.

[2] = Visual solubility test: components mixed in 30 ml tap water, assessed visually for turbidity, particles in suspension or precipitate; settings: Table 2, calcium sources at consistent calcium content, room temperature, same observation for both trials
Description: Table 1 provides a description of the visual solubility tests performed using various components (including a commercial sample), with the quantities of each product weighed, and visual observations after the components were mixed in water.
as §1, §2
The following trials were performed in order to assess visual solubility and pH levels of various formulations. […] All lots were prepared by dry blending by hand of ingredients using spatula.

| Compound | pH trial 1 [1] | pH trial 2 [1] | Observations [2] | pH ([1]; Tables 3-5, calcium salt with dibasic and monobasic sodium phosphate in 30 ml water) |
| --- | --- | --- | --- | --- |
| CC(O)C(=O)[O-].O=C([O-])[C@H](O)[C@@H](O)[C@H](O)[C@H](O)CO.[Ca+2] [Calcium lactate gluconate] | 7.73 | 7.74 | sufficiently soluble | – |
| O.O.[Ca+2].[Cl-].[Cl-] [Calcium Chloride dihydrate] | 7.65 | 7.67 | – | – |
| Calcium glycerophosphate | 8.08 | 8.07 | – | higher pH |
